Results from PubChem BioAssay (NCI).
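Test compounds were applied to cells in 96-well plates for 48 hours at 5 doses. TGI marks complete inhibition of growth.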

What was measured:
Experiment in all cases: DTP human tumour cell line panel, 48 h
COLO 205 colon = test system: COLO 205 colon
LOX IMVI melanoma = test system: LOX IMVI melanoma
HL-60(TB) leukemia = test system: HL-60(TB) leukemia
SK-OV-3 ovarian = test system: SK-OV-3 ovarian
SNB-19 CNS = test system: SNB-19 CNS
U251 CNS = test system: U251 CNS
786-0 renal = test system: 786-0 renal
M14 melanoma = test system: M14 melanoma
MOLT-4 leukemia = test system: MOLT-4 leukemia
HCT-116 colon = test system: HCT-116 colon
A549 NSCLC = test system: A549 NSCLC
NCI-H23 lung = test system: NCI-H23 lung
SF-268 CNS = test system: SF-268 CNS
OVCAR-5 ovarian = test system: OVCAR-5 ovarian
HCT-15 colon = test system: HCT-15 colon
OVCAR-4 ovarian = test system: OVCAR-4 ovarian
UACC-257 melanoma = test system: UACC-257 melanoma
SK-MEL-2 melanoma = test system: SK-MEL-2 melanoma
A498 renal = test system: A498 renal

## CN(C)CC(/C(Cc1ccccc1)=N\NC(=S)NN)c1ccccc1 (stereo unspecified)
COLO 205 colon
  TGI: > 100 µM
LOX IMVI melanoma
  TGI: > 100 µM
HL-60(TB) leukemia
  TGI: > 100 µM
SK-OV-3 ovarian
  TGI: > 100 µM
SNB-19 CNS
  TGI: > 100 µM
U251 CNS
  TGI: > 100 µM
786-0 renal
  TGI: > 100 µM
M14 melanoma
  TGI: > 100 µM
MOLT-4 leukemia
  TGI: > 100 µM
HCT-116 colon
  TGI: > 100 µM
A549 NSCLC
  TGI: > 100 µM
NCI-H23 lung
  TGI: > 100 µM
SF-268 CNS
  TGI: > 100 µM
OVCAR-5 ovarian
  TGI: > 100 µM
HCT-15 colon
  TGI: > 100 µM
OVCAR-4 ovarian
  TGI: > 100 µM
UACC-257 melanoma
  TGI: > 100 µM

## C[C@@]1(OC(=O)c2cc([N+](=O)[O-])cc([N+](=O)[O-])c2)C[C@@H]2CCCC[C@@H]21
COLO 205 colon
  TGI: > 100 µM
LOX IMVI melanoma
  TGI: > 100 µM
HL-60(TB) leukemia
  TGI: > 100 µM
SK-OV-3 ovarian
  TGI: > 100 µM
SNB-19 CNS
  TGI: > 100 µM
U251 CNS
  TGI: > 100 µM
786-0 renal
  TGI: > 100 µM
M14 melanoma
  TGI: > 100 µM
MOLT-4 leukemia
  TGI: > 100 µM
HCT-116 colon
  TGI: > 100 µM
A549 NSCLC
  TGI: > 100 µM
NCI-H23 lung
  TGI: > 100 µM
SF-268 CNS
  TGI: > 100 µM
OVCAR-5 ovarian
  TGI: > 100 µM
HCT-15 colon
  TGI: > 100 µM
OVCAR-4 ovarian
  TGI: > 100 µM
UACC-257 melanoma
  TGI: > 100 µM
SK-MEL-2 melanoma
  TGI: > 100 µM

## Nc1nc2ncn(CC(O)CO)c2c(=O)[nH]1 (stereo unspecified)
COLO 205 colon
  TGI: > 100 µM
A498 renal
  TGI: > 100 µM
LOX IMVI melanoma
  TGI: > 100 µM
HL-60(TB) leukemia
  TGI: > 100 µM
SK-OV-3 ovarian
  TGI: > 100 µM
SNB-19 CNS
  TGI: > 100 µM
U251 CNS
  TGI: > 100 µM
786-0 renal
  TGI: > 100 µM
M14 melanoma
  TGI: > 100 µM
HCT-116 colon
  TGI: > 100 µM
A549 NSCLC
  TGI: > 100 µM
SF-268 CNS
  TGI: > 100 µM
OVCAR-5 ovarian
  TGI: > 100 µM
HCT-15 colon
  TGI: > 100 µM
OVCAR-4 ovarian
  TGI: > 100 µM
UACC-257 melanoma
  TGI: > 100 µM
SK-MEL-2 melanoma
  TGI: > 100 µM

## Nc1nc2c(ncn2CCCC(c2ccccc2)P(=O)(O)O)c(=O)[nH]1 (stereo unspecified)
COLO 205 colon
  TGI: > 100 µM
LOX IMVI melanoma
  TGI: > 100 µM
HL-60(TB) leukemia
  TGI: > 100 µM
SK-OV-3 ovarian
  TGI: > 100 µM
SNB-19 CNS
  TGI: > 100 µM
U251 CNS
  TGI: > 100 µM
786-0 renal
  TGI: > 100 µM
M14 melanoma
  TGI: > 100 µM
MOLT-4 leukemia
  TGI: > 100 µM
HCT-116 colon
  TGI: > 100 µM
A549 NSCLC
  TGI: > 100 µM
NCI-H23 lung
  TGI: > 100 µM
SF-268 CNS
  TGI: > 100 µM
OVCAR-5 ovarian
  TGI: > 100 µM
HCT-15 colon
  TGI: > 100 µM
UACC-257 melanoma
  TGI: > 100 µM
SK-MEL-2 melanoma
  TGI: > 100 µM

## COc1cc(-c2cc(=O)c3ccccc3[nH]2)cc(OC)c1OC
COLO 205 colon
  TGI: > 75 µM
LOX IMVI melanoma
  TGI: > 75 µM
HL-60(TB) leukemia
  TGI: > 7.5 µM
SK-OV-3 ovarian
  TGI: > 75 µM
SNB-19 CNS
  TGI: > 75 µM
U251 CNS
  TGI: > 75 µM
786-0 renal
  TGI: > 75 µM
M14 melanoma
  TGI: > 75 µM
MOLT-4 leukemia
  TGI: > 75 µM
HCT-116 colon
  TGI: > 75 µM
A549 NSCLC
  TGI: > 75 µM
NCI-H23 lung
  TGI: > 75 µM
SF-268 CNS
  TGI: > 75 µM
HCT-15 colon
  TGI: > 75 µM
UACC-257 melanoma
  TGI: > 75 µM

## Oc1cccnc1/C=N/OCc1ccccc1
COLO 205 colon
  TGI: > 100 µM
A498 renal
  TGI: > 100 µM
LOX IMVI melanoma
  TGI: > 100 µM
HL-60(TB) leukemia
  TGI: > 100 µM
SK-OV-3 ovarian
  TGI: > 100 µM
SNB-19 CNS
  TGI: > 100 µM
U251 CNS
  TGI: > 100 µM
786-0 renal
  TGI: > 100 µM
M14 melanoma
  TGI: > 100 µM
MOLT-4 leukemia
  TGI: > 100 µM
HCT-116 colon
  TGI: > 100 µM
A549 NSCLC
  TGI: > 100 µM
SF-268 CNS
  TGI: > 100 µM
OVCAR-5 ovarian
  TGI: > 100 µM
HCT-15 colon
  TGI: > 100 µM
UACC-257 melanoma
  TGI: > 100 µM
SK-MEL-2 melanoma
  TGI: > 100 µM

## Cc1ccc(/C=C2\Cc3cc(C)c(C)cc3C2=O)c(C(=O)O)c1
A498 renal
  TGI: 61.3 µM
LOX IMVI melanoma
  TGI: > 100 µM
HL-60(TB) leukemia
  TGI: > 100 µM
SNB-19 CNS
  TGI: > 100 µM
U251 CNS
  TGI: > 100 µM
786-0 renal
  TGI: > 100 µM
MOLT-4 leukemia
  TGI: > 100 µM
HCT-116 colon
  TGI: > 100 µM
A549 NSCLC
  TGI: > 100 µM
SF-268 CNS
  TGI: > 100 µM
HCT-15 colon
  TGI: > 100 µM
UACC-257 melanoma
  TGI: > 100 µM
SK-MEL-2 melanoma
  TGI: > 100 µM

## O=C(Nc1nc2ncn(CCO)c2c(=O)[nH]1)c1ccccc1
COLO 205 colon
  TGI: > 100 µM
A498 renal
  TGI: > 100 µM
LOX IMVI melanoma
  TGI: > 100 µM
HL-60(TB) leukemia
  TGI: > 100 µM
SK-OV-3 ovarian
  TGI: > 100 µM
SNB-19 CNS
  TGI: > 100 µM
U251 CNS
  TGI: > 100 µM
786-0 renal
  TGI: > 100 µM
M14 melanoma
  TGI: > 100 µM
HCT-116 colon
  TGI: > 100 µM
A549 NSCLC
  TGI: > 100 µM
SF-268 CNS
  TGI: > 100 µM
OVCAR-5 ovarian
  TGI: > 100 µM
HCT-15 colon
  TGI: > 100 µM
OVCAR-4 ovarian
  TGI: > 100 µM
UACC-257 melanoma
  TGI: > 100 µM
SK-MEL-2 melanoma
  TGI: > 100 µM

## O=C(O)C12CC3CC(CC(F)(C3)C1)C2
COLO 205 colon
  TGI: > 100 µM
A498 renal
  TGI: > 100 µM
LOX IMVI melanoma
  TGI: > 100 µM
HL-60(TB) leukemia
  TGI: > 100 µM
SK-OV-3 ovarian
  TGI: > 100 µM
U251 CNS
  TGI: > 100 µM
786-0 renal
  TGI: > 100 µM
M14 melanoma
  TGI: > 100 µM
MOLT-4 leukemia
  TGI: > 100 µM
HCT-116 colon
  TGI: > 100 µM
A549 NSCLC
  TGI: > 100 µM
NCI-H23 lung
  TGI: > 100 µM
OVCAR-5 ovarian
  TGI: > 100 µM
UACC-257 melanoma
  TGI: > 100 µM
SK-MEL-2 melanoma
  TGI: > 100 µM

## COc1ccc(/C=C/c2cc(OC)c(OCc3ccccc3)c(OC)c2)cc1
COLO 205 colon
  TGI: > 100 µM
A498 renal
  TGI: > 100 µM
SK-OV-3 ovarian
  TGI: > 100 µM
SNB-19 CNS
  TGI: > 100 µM
U251 CNS
  TGI: > 100 µM
786-0 renal
  TGI: > 100 µM
M14 melanoma
  TGI: > 100 µM
MOLT-4 leukemia
  TGI: > 100 µM
HCT-116 colon
  TGI: > 100 µM
A549 NSCLC
  TGI: > 100 µM
NCI-H23 lung
  TGI: > 100 µM
SF-268 CNS
  TGI: > 100 µM
OVCAR-5 ovarian
  TGI: 94.5 µM
OVCAR-4 ovarian
  TGI: > 100 µM
UACC-257 melanoma
  TGI: > 100 µM
SK-MEL-2 melanoma
  TGI: > 100 µM

## NC(CCCCNCc1ccccc1O)C(=O)O (stereo unspecified)
COLO 205 colon
  TGI: > 100 µM
A498 renal
  TGI: > 100 µM
LOX IMVI melanoma
  TGI: > 100 µM
HL-60(TB) leukemia
  TGI: > 100 µM
SK-OV-3 ovarian
  TGI: > 100 µM
SNB-19 CNS
  TGI: > 100 µM
U251 CNS
  TGI: > 100 µM
786-0 renal
  TGI: > 100 µM
M14 melanoma
  TGI: > 100 µM
MOLT-4 leukemia
  TGI: > 100 µM
HCT-116 colon
  TGI: > 100 µM
A549 NSCLC
  TGI: > 100 µM
NCI-H23 lung
  TGI: > 100 µM
SF-268 CNS
  TGI: > 100 µM
OVCAR-5 ovarian
  TGI: > 100 µM
HCT-15 colon
  TGI: > 100 µM
OVCAR-4 ovarian
  TGI: > 100 µM
UACC-257 melanoma
  TGI: > 100 µM
SK-MEL-2 melanoma
  TGI: > 100 µM
